Residues, ends and D or L forms follow the SMILES beside them. *: point of attachment. Cbz = O=C(OCc1ccccc1)*
System: GSK-3β
Assay: Immunoblot of GSK-3β in Trib3-silenced AMs with MG132 or 3MA
Type: cell-based, mouse
Details: immunoblots, Fig. S4C

Structure (SMILES): CC(C)C[C@@H](C=O)NC(=O)[C@H](CC(C)C)NC(=O)[C@H](CC(C)C)NC(=O)OCc1ccccc1 [MG132] (Cbz-Leu-Leu-Leu-aldehyde)
- Trib3 depletion-induced reduction in GSK-3β expression: reversed

— publication PMC8546892 (Acta Pharmaceutica Sinica. B, 2021)
